Assay results from ChEMBL document CHEMBL1201862, “PubChem BioAssay data set” (2004).
Activity calls are given as the source filed them.

What was measured:
Cytochrome P450 3A4 = Cytochrome P450 3A4 (Homo sapiens, UniProt P08684);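 note: CYP3A4 tested as one member of a cytochrome P450 panel screen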
Cytochrome P450 2C19 = Cytochrome P450 2C19 (Homo sapiens, UniProt P33261); assay: Cytochrome panel assay with activity outcomes. Panel member name: p450-cyp2c19 Compounds with AC50 equal or less than 10 uM are considered active; assay type: functional; conditions: read-out: AC50
INS1 = assay: beta cell apoptosis inhibitors, cytokine rescue, dose response, luminescence, retest (AID 449756); assay type: functional, cell-based; conditions: Rattus norvegicus, INS1;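 note: cell death triggered by IL-1 beta plus TNF-alpha plus IFN-gamma mixture; protective hits raise ATP signal compared with cytokine alone wells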
cells [1] = assay type: functional, cell-based
[2] = THP-1 cell cytotoxicity, dose response, cytotoxicity control for non-replicating M. tuberculosis project (AID 489025); assay type: functional
cells [3] = assay type: functional
cells [4] = assay type: functional, cell-based; remark: listed apart in the source
[5] = cytotoxicity toward NIH3T3 fibroblasts, dose response, counter-screen, cell-based, ATP luminescence, mouse fibroblasts (AID 2010); assay type: functional;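 note: cells exposed to compound for about 90 hours before reading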
[6] = target: DNA damage-inducible transcript 3 protein (Mus musculus, UniProt P35639); assay type: functional, Cricetulus griseus
[7] = inhibitors of intracellular T. cruzi replication, confirmation, NIH3T3 host cells, beta-gal luminescence (AID 2044); assay type: functional, cell-based;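 note: intracellular parasites grown in NIH/3T3 mouse fibroblasts as host cells; luminescent beta-galactosidase reporter signal from transgenic T. cruzi replicating inside host cells; inhibitors lower the luminescence signal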
[8] = NIH-3T3 fibroblast cytotoxicity, dose response, cytotoxicity control, cell-based, fluorescence, Alamar Blue, secondary assay (AID 2327); assay type: functional;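 note: NIH-3T3 mouse fibroblasts cultured with fluconazole at 8 µg/mL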
[9] = C. albicans growth with fluconazole, confirmation, fluorescence, retest (AID 2467); assay type: functional, cell-based
[10] = insulin promoter down-regulators in MIN6 cells, imaging, high-content screening, mouse beta cells (AID 1628); assay type: functional
[11] = cytotoxicity in MIN6 insulinoma cells, dose response, cytotoxicity control, cell-based, mouse insulinoma (AID 2122); assay type: functional;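 note: confirmatory high-throughput counterscreen run to flag cytotoxic compounds; mouse MIN-6 beta cells carrying an insulin promoter eGFP reporter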
Bcl-2-related protein A1 = target: T1, Bcl-2-related protein A1 (Mus musculus, UniProt Q07440); assay type: functional;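 note: confirmatory dose–response counterscreen on Bfl-1, used to check hits from a UBC13 polyubiquitin inhibitor campaign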
T1 sequence (Q07440 whole entry): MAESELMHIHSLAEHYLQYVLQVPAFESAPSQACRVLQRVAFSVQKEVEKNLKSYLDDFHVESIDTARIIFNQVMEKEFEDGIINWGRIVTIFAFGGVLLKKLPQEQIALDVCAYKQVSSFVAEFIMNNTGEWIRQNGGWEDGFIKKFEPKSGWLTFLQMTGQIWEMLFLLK

[12] = target: T2, Ubiquitin-conjugating enzyme E2 N (Homo sapiens, UniProt P61088); assay type: functional;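 note: Dose-response confirmation in a TR-FRET assay detecting UBC13-driven polyubiquitin chain formation, inhibition measured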
T2 sequence (P61088 whole entry): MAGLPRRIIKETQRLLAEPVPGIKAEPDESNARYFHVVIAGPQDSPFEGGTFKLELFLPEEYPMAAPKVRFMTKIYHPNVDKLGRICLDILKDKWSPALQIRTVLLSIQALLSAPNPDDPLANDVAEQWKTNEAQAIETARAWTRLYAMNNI

[13] = target: T3, Rac GTPase-activating protein 1 (Homo sapiens, UniProt Q9H0H5); assay: MgcRacGAP GTPase-activating activity inhibitors, confirmation, biochemical, ADP Hunter fluorescence, primary and confirmatory (AID 624330); assay type: functional
T3 sequence (Q9H0H5 whole entry): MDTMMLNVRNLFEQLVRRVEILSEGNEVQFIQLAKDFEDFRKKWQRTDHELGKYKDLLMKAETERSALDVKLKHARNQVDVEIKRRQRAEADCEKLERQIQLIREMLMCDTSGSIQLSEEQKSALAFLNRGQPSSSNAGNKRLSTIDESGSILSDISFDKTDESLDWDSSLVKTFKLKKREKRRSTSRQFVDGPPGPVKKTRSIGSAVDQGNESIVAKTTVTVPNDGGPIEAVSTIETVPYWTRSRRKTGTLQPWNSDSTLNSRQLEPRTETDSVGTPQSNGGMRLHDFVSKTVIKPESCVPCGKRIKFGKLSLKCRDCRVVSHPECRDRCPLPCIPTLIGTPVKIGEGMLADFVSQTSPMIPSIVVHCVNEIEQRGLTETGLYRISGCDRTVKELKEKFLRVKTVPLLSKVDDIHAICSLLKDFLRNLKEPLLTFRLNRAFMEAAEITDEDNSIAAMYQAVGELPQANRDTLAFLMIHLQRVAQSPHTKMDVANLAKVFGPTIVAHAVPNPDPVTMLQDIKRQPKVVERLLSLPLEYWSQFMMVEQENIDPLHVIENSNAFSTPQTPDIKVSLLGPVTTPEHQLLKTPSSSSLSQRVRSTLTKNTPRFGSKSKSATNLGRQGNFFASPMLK

[14] = target: T4, Replicative DNA helicase DnaB (Mycobacterium tuberculosis, UniProt P9WMR3); assay: DnaB intein splicing inhibitors, dose response, biochemical, cell-free fluorescence (AID 449749); assay type: functional
T4 sequence (P9WMR3 whole entry): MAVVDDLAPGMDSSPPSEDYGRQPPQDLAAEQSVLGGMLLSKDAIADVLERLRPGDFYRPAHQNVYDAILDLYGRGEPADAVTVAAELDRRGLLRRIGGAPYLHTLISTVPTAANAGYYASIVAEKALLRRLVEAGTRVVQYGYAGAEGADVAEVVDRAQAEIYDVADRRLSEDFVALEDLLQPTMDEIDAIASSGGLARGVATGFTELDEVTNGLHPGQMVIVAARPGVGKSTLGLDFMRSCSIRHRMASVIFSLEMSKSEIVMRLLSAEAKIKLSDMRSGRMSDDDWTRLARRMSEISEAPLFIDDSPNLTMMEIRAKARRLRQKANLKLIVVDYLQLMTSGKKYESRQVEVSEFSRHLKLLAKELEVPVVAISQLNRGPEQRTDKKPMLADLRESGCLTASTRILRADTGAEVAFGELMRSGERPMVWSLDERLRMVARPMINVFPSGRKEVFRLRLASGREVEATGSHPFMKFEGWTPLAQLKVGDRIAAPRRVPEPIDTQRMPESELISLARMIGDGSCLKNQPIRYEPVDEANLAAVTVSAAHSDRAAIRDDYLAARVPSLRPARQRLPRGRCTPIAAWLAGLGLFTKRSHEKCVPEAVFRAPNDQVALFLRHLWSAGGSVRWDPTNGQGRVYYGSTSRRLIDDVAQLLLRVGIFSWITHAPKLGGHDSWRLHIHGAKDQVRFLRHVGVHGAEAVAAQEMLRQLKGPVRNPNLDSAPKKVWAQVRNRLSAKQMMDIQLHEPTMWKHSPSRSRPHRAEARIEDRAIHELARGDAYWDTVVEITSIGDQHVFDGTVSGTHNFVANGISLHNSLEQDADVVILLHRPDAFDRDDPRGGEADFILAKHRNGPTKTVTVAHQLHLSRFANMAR

Protein RecA = target: T5, Protein RecA (Mycobacterium tuberculosis, UniProt P9WHJ3); assay: Fluorescence Cell-Free Homogeneous Dose Retest to Identify Inhibitors of RecA-Intein Splicing Activity. [Related pubchem assays (depositor defined):AID2097, AID2223, AID489010, AID492950]; assay type: functional
T5 sequence (P9WHJ3 whole entry): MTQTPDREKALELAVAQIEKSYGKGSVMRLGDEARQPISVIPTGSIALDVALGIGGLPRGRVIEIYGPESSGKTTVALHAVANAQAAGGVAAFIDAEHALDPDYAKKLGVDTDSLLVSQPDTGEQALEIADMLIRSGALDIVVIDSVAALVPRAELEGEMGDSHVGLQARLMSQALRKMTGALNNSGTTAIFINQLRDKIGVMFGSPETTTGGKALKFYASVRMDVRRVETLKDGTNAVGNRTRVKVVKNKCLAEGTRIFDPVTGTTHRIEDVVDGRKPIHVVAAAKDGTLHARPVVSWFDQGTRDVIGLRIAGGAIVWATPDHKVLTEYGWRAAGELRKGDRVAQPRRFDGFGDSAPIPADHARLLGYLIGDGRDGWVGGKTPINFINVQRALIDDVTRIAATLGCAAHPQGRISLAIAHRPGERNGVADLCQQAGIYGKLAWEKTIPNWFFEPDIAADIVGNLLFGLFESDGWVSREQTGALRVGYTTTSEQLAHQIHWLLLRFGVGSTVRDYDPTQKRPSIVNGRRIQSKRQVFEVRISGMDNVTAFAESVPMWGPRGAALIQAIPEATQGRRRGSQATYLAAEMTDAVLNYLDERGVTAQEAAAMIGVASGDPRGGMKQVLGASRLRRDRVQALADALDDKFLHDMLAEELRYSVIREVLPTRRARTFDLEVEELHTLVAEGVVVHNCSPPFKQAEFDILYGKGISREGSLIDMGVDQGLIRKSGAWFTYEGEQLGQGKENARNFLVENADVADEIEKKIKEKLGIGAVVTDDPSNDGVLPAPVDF

[15] = target: T6, Heat shock factor protein 1 (Mus musculus, UniProt P38532); assay: HSF1 potentiators in luciferase reporter cells, confirmation, cell-based, NIH3T3, luminescence, dose retest (AID 435004); assay type: functional;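 note: stress induced by proteasome inhibitor MG132 added 30 min after compound; luciferase reporter driven by HSF1 response element in NIH3T3 cells; actives raise luminescence as potentiators of the MG132 stress response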
T6 sequence (P38532 whole entry): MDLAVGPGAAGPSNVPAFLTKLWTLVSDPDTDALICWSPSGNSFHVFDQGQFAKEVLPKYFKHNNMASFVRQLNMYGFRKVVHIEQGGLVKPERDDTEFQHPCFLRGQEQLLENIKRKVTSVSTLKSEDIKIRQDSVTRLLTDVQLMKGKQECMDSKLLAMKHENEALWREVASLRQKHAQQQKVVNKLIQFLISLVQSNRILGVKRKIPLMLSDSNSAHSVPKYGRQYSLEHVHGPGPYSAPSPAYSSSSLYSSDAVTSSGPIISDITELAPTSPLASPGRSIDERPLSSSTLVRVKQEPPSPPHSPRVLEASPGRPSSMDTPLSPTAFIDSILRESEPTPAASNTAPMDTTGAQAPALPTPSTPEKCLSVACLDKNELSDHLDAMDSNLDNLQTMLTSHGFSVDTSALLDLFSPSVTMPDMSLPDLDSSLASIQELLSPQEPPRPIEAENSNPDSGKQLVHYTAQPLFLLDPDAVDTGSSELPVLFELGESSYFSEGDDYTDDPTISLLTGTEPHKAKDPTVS

[16] = microbe, parasite or virus in culture; assay type: functional; conditions: Mycobacterium tuberculosis
[17] = system: Streptococcus sp. 'group A'; assay: growth inhibition of control SK(-) GAS strain, dose response, counter-screen for streptokinase expression inhibitor project, luminescence, kanamycin, BacTiterGlo, confirmation (AID 1900); assay type: functional, organism-based
Streptokinase A = target: T7, Streptokinase A (Streptococcus pyogenes serotype M1, UniProt P10520); assay: S. pyogenes streptokinase expression inhibitors, potency, dose response, plasminogen activation absorbance, OD405 (AID 1914); assay type: functional, Streptococcus pyogenes M1 GAS;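 note: secreted streptokinase activity via plasminogen activation per viability signal from cell pellet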
T7 sequence (P10520 whole entry): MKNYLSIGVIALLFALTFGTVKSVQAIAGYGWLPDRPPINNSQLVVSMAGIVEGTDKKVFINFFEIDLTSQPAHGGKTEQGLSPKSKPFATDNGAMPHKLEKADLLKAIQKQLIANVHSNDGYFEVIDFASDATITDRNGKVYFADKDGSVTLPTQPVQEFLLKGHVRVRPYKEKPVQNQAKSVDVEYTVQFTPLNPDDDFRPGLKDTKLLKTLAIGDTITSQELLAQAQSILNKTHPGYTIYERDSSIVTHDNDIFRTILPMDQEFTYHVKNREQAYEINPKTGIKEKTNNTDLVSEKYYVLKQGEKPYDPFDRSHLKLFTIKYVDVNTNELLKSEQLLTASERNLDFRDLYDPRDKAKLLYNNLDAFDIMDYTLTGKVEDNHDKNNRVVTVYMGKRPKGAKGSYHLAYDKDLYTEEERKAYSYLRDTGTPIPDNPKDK

Streptococcus = assay: Group A Streptococcus viability loss, dose response, counter-screen for streptokinase expression inhibitor project, luminescence, BacTiterGlo (AID 1915); assay type: functional, organism-based;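 note: potency for reduction of bacterial viability or growth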

Sequence of DNA damage-inducible transcript 3 protein (P35639 whole entry): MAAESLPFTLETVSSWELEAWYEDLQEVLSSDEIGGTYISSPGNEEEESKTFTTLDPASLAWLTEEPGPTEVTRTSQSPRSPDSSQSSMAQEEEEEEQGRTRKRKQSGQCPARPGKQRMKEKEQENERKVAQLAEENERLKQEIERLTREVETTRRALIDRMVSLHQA
Sequence of Cytochrome P450 3A4 (P08684 whole entry): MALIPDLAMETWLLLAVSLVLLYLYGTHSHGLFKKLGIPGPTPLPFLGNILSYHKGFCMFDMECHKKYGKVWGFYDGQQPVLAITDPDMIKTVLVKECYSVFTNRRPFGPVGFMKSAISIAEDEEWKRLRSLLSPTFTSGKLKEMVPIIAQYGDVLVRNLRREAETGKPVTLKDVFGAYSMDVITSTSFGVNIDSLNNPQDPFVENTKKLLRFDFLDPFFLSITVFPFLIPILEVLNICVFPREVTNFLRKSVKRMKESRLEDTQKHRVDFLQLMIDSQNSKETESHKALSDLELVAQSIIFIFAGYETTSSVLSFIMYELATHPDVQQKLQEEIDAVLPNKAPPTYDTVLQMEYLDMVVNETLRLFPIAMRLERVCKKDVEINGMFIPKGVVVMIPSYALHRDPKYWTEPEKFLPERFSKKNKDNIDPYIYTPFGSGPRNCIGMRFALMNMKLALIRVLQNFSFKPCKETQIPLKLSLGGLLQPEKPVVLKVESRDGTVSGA
Sequence of Cytochrome P450 2C19 (P33261 whole entry): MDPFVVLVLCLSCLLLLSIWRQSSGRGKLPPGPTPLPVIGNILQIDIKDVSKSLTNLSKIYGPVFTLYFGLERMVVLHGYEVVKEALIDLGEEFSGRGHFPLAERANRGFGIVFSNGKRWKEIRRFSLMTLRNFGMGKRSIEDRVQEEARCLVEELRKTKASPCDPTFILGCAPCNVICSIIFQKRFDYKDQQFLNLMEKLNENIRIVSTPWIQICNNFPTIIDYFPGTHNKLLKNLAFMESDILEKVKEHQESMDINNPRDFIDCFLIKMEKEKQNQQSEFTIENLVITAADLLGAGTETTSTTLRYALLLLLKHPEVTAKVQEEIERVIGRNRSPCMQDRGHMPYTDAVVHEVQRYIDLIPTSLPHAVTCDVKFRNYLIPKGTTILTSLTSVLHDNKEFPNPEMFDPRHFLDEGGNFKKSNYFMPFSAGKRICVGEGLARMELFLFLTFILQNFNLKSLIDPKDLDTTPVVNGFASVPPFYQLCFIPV

SMILES: COCCCN1CCN(c2nnc3n2-c2sc(Br)cc2C(c2ccccc2Cl)=NC3)CC1.CS(=O)(=O)O
- AC50 (Cytochrome P450 3A4): inconclusive
- AC50 (Cytochrome P450 2C19): 7.08 µM (inconclusive)

SMILES: COc1cccc(CN2CCC(N(CCc3ccccc3)Cc3ccccc3)CC2)c1OC
- AC50 (INS1): 11.4 µM (active)
- EC50 (cells [1]): > 350 µM (not active)
- CC50 [2]: > 40 µM (active)
- IC50 (cells [3]): 25.2 µM (active)
- EC50 (cells [4]): > 350 µM (not active)

SMILES: CCOc1ccc2nc(NC(=O)CSc3nnnn3C3CCCCC3)sc2c1
- EC50 [5]: > 30 µM (not active)
- Absolute IC50 (CHOP) [6]: 10 µM
- EC50 [7]: 2.14 µM (active)

SMILES: CC(C)(C)c1ccc(OCc2ccc(C(=O)N/N=C/c3ccc(O)c(O)c3)cc2)cc1
- AC50 (INS1): 5.45 µM (active)
- EC50 [8]: 2.67 µM (inconclusive)
- EC50 [9]: > 38 µM (not active)
- IC50 [10]: 3.14 µM (active)
- IC50 [11]: 1.97 µM (active)

SMILES: Cc1ccccc1C(=O)N1CCN(c2ccc([N+](=O)[O-])c(NCc3ccco3)c2)CC1
- AC50 (Cytochrome P450 3A4): inconclusive

SMILES: C#CCOCCOCCOCCNc1nc(N2CCN(C(=O)C([C@@H](C)O)n3cc([C@@H](N)CCCCN)nn3)CC2)nc(N2CCN(C(=O)[C@H](CCCCN)n3cc(CN)nn3)CC2)n1 (some centres not stated)
- IC50 (Bcl-2-related protein A1): > 20 µM (inactive)
- IC50 [12]: 3.7 µM (active)
- IC50 [13]: 171 µM (active)

SMILES: O=C(CCl)N1CCN2C(=O)c3ccccc3C12c1ccc(Cl)cc1 (configuration not stated)
- AC50 [14]: 3.96 µM (active)
- EC50 (Protein RecA): 1.08 µM (active)
- Absolute IC50 (CHOP) [6]: 10 µM
- EC50 [15]: 15 µM (active)
- CC50 [16]: 8.94 µM (active)

SMILES: O=[N+]([O-])c1ccccc1N/N=C/c1cccc(O)c1O
- IC50 [10]: 2.74 µM (active)
- IC50 [11]: 3.75 µM (active)

SMILES: Cc1cc(N2CCC(C)CC2)nc(-n2nc(C)cc2C)n1
- EC50 [17]: 7.26 µM (active)
- EC50 (Streptokinase A): > 150 µM (not active)
- EC50 (Streptococcus): > 150 µM (not active)
- CC50 [2]: > 40 µM (active)
- IC50 (cells [3]): 0.15 µM (active)
- CC50 [16]: > 40 µM (active)
